From ChEMBL document CHEMBL4038272, “Synthesis and biological evaluation of novel podophyllotoxin-NSAIDs conjugates as multifunctional anti-MDR agents against resistant human hepatocellular carcinoma Bel-7402/5-FU cells” (Eur J Med Chem, 2017)
Calls of active or inactive are those of the source. No cut-off for these calls is given here.

What was measured:
[1] = test system: Bel-7402; assay: Antiproliferative activity against human Bel7402 cells after 72 hrs by CCK-8 assay; assay type: functional, cell-based; settings: Bel-7402, 72 h
[2] = test system: Bel7402/5-FU; assay: Antiproliferative activity against human Bel7402/5-FU cells after 72 hrs by CCK-8 assay; assay type: functional, cell-based
[3] = test system: L02; assay: Antiproliferative activity against human LO2 cells after 72 hrs by CCK-8 assay; assay type: cell-based; settings: L02, 72 h
[4] = Resistant factor, ratio of IC50 for human Bel7402/5-FU cells to IC50 for human Bel7402 cells; assay type: functional
[5] = test system: Bel7402/5-FU; assay: Cell cycle arrest in human Bel7402/5-FU cells assessed as accumulation at G1 phase at 0.1 uM after 48 hrs by propidium iodide staining based flow cytometry (reference value: 52.21%); assay type: functional
[6] = test system: Bel7402/5-FU; assay: Cell cycle arrest in human Bel7402/5-FU cells assessed as accumulation at S phase at 0.1 uM after 48 hrs by propidium iodide staining based flow cytometry (reference value: 12.62%); assay type: functional
[7] = test system: Bel7402/5-FU; assay: Cell cycle arrest in human Bel7402/5-FU cells assessed as accumulation at G2 phase at 0.1 uM after 48 hrs by propidium iodide staining based flow cytometry (reference value: 35.16%); assay type: functional
[8] = test system: Bel7402/5-FU; assay: Induction of apoptosis in human Bel7402/5-FU cells assessed as reduction in cell number at 0.1 uM after 24 hrs by Hoechst 33342 staining based fluorescent microscopic method; assay type: functional
[9] = test system: Bel7402/5-FU; assay: Induction of apoptosis in human Bel7402/5-FU cells assessed as morphological changes at 0.1 uM after 24 hrs by Hoechst 33342 staining based fluorescent microscopic method; assay type: functional, cell-based
[10] = test system: Bel7402/5-FU; assay: Induction of apoptosis in human Bel7402/5-FU cells assessed as condensed nuclei at 0.1 uM after 24 hrs by Hoechst 33342 staining based fluorescent microscopic method; assay type: functional, cell-based
[11] = test system: Bel7402/5-FU; assay: Induction of apoptosis in human Bel7402/5-FU cells at 0.1 uM after 24 hrs by Hoechst 33342 staining based fluorescent microscopic method; assay type: functional, cell-based
[12] = test system: Bel7402/5-FU; assay: Induction of apoptosis in human Bel7402/5-FU cells assessed as live cells at 0.1 uM after 48 hrs by Annexin V-APC/7-AAD staining based flow cytometry (reference value: 91.08%); assay type: functional
[13] = test system: Bel7402/5-FU; assay: Induction of apoptosis in human Bel7402/5-FU cells assessed as early apoptotic cells at 0.1 uM after 48 hrs by Annexin V-APC/7-AAD staining based flow cytometry (reference value: 5.24%); assay type: functional
[14] = test system: Bel7402/5-FU; assay: Induction of apoptosis in human Bel7402/5-FU cells assessed as late apoptotic cells at 0.1 uM after 48 hrs by Annexin V-APC/7-AAD staining based flow cytometry (reference value: 3%); assay type: functional
[15] = test system: Bel7402/5-FU; assay: Induction of apoptosis in human Bel7402/5-FU cells assessed as necrotic cells at 0.1 uM after 48 hrs by Annexin V-APC/7-AAD staining based flow cytometry (reference value: 0.58%); assay type: functional
[16] = test system: Bel7402/5-FU; assay: Induction of microtubule disruption in human Bel7402/5-FU cells at 0.1 uM after 24 to 48 hrs by DAPI staining based immunofluorescence microscopic method; assay type: functional, cell-based
[17] = test system: Bel7402/5-FU; assay: Reduction in microtubule density in human Bel7402/5-FU cells at 0.1 uM after 24 to 48 hrs by DAPI staining based immunofluorescence microscopic method; assay type: functional, cell-based
[18] = test system: Bel7402/5-FU; assay: Antimigratory activity in human Bel7402/5-FU cells at 0.1 uM after 24 hrs by wound healing assay; assay type: functional, cell-based
[19] = test system: Bel7402/5-FU; assay: Effect on CDK1 expression in human Bel7402/5-FU cells assessed as ratio of CDK1 to beta-actin level at 0.1 uM after 48 hrs by Western blot analysis (reference value: 0.33); assay type: functional
[20] = test system: Bel7402/5-FU; assay: Effect on CDK2 expression in human Bel7402/5-FU cells assessed as ratio of CDK2 to beta-actin level at 0.1 uM after 48 hrs by Western blot analysis (reference value: 0.43); assay type: functional
[21] = test system: Bel7402/5-FU; assay: Effect on cyclinA expression in human Bel7402/5-FU cells assessed as ratio of cyclinA to beta-actin level at 0.1 uM after 48 hrs by Western blot analysis (reference value: 0.39); assay type: functional
[22] = test system: Bel7402/5-FU; assay: Effect on cyclinB1 expression in human Bel7402/5-FU cells assessed as ratio of cyclinB1 to beta-actin level at 0.1 uM after 48 hrs by Western blot analysis (reference value: 0.53); assay type: functional
[23] = test system: Bel7402/5-FU; assay: Induction of apoptosis in human Bel7402/5-FU cells assessed as ratio of cleaved caspase-3 to beta-actin level at 0.1 uM after 48 hrs by Western blot analysis (reference value: 0.19); assay type: functional
[24] = test system: Bel7402/5-FU; assay: Induction of apoptosis in human Bel7402/5-FU cells assessed as ratio of cleaved caspase-8 to beta-actin level at 0.1 uM after 48 hrs by Western blot analysis (reference value: 0.17); assay type: functional
[25] = test system: Bel7402/5-FU; assay: Induction of apoptosis in human Bel7402/5-FU cells assessed as ratio of cleaved caspase-9 to beta-actin level at 0.1 uM after 48 hrs by Western blot analysis (reference value: 0.17); assay type: functional
[26] = test system: Bel7402/5-FU; assay: Induction of apoptosis in human Bel7402/5-FU cells assessed as ratio of cleaved PARP to beta-actin level at 0.1 uM after 48 hrs by Western blot analysis (reference value: 0.2); assay type: functional
[27] = test system: Bel7402/5-FU; assay: Effect on COX2 expression in human Bel7402/5-FU cells assessed as ratio of COX2 to beta-actin level at 0.1 uM after 48 hrs by Western blot analysis (reference value: 0.36); assay type: functional
[28] = test system: Bel7402/5-FU; assay: Effect on COX1 expression in human Bel7402/5-FU cells assessed as ratio of COX1 to beta-actin level at 0.1 uM after 48 hrs by Western blot analysis (reference value: 0.48); assay type: functional
[29] = test system: Bel7402/5-FU; assay: Effect on VEGFR2 expression in human Bel7402/5-FU cells assessed as ratio of VEGFR2 to beta-actin level at 0.1 uM after 48 hrs by Western blot analysis (reference value: 0.25); assay type: functional
[30] = test system: Bel7402/5-FU; assay: Effect on MMP2 expression in human Bel7402/5-FU cells assessed as ratio of MMP2 to beta-actin level at 0.1 uM after 48 hrs by Western blot analysis (reference value: 0.3); assay type: functional
[31] = test system: Bel7402/5-FU; assay: Effect on E-cadherin expression in human Bel7402/5-FU cells assessed as ratio of E-cadherin to beta-actin level at 0.1 uM after 48 hrs by Western blot analysis (reference value: 0.2); assay type: functional
[32] = test system: Bel7402/5-FU; assay: Effect on iNOS expression in human Bel7402/5-FU cells assessed as ratio of iNOS to beta-actin level at 0.1 uM after 48 hrs by Western blot analysis (reference value: 0.13); assay type: functional
[33] = test system: Bel7402/5-FU; assay: Effect on P-gp expression in human Bel7402/5-FU cells assessed as ratio of P-gp to beta-actin level at 0.1 uM after 48 hrs by Western blot analysis (reference value: 0.59); assay type: functional
[34] = test system: Bel7402/5-FU; assay: Effect on MRP1 expression in human Bel7402/5-FU cells assessed as ratio of MRP1 to beta-actin level at 0.1 uM after 48 hrs by Western blot analysis (reference value: 0.58); assay type: functional
[35] = target: Mitogen-activated protein kinase; ERK1/ERK2 (Homo sapiens) (UniProt P27361+P28482); assay: Effect on ERK1/2 phosphorylation in human Bel7402/5-FU cells assessed as ratio of phosphorylated ERK1/2 to beta-actin level at 0.1 uM after 48 hrs by Western blot analysis (reference value: 0.59); assay type: cell-based
Mitogen-activated protein kinase; ERK1/ERK2 (Homo sapiens), sequence (P27361 whole entry, looked up): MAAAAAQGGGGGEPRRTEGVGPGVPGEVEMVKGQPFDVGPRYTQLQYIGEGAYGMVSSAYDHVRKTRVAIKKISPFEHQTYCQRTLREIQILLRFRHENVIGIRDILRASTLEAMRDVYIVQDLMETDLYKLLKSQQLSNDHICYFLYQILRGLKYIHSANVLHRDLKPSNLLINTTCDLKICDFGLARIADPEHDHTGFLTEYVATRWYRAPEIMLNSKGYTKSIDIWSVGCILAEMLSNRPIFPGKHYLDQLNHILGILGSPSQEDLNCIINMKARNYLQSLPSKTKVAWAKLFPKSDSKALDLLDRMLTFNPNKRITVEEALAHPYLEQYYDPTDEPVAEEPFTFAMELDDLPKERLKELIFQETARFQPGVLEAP
Mitogen-activated protein kinase; ERK1/ERK2 (Homo sapiens), sequence (P28482 whole entry, looked up): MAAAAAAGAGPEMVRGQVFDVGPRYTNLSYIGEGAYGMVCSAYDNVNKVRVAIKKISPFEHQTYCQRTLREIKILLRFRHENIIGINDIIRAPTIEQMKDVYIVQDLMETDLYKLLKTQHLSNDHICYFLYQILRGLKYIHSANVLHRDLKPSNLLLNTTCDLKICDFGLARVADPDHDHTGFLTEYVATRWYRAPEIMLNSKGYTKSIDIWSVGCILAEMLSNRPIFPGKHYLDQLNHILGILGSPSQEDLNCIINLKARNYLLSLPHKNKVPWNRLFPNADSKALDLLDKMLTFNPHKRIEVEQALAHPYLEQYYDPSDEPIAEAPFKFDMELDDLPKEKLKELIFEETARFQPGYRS

[36] = target: Signal transducer and activator of transcription 3 (Homo sapiens) (UniProt P40763); assay: Effect on STAT3 phosphorylation in human Bel7402/5-FU cells assessed as ratio of phosphorylated STAT3 to beta-actin level at 0.1 uM after 48 hrs by Western blot analysis (reference value: 0.3); assay type: cell-based
Signal transducer and activator of transcription 3 (Homo sapiens), sequence (P40763 whole entry): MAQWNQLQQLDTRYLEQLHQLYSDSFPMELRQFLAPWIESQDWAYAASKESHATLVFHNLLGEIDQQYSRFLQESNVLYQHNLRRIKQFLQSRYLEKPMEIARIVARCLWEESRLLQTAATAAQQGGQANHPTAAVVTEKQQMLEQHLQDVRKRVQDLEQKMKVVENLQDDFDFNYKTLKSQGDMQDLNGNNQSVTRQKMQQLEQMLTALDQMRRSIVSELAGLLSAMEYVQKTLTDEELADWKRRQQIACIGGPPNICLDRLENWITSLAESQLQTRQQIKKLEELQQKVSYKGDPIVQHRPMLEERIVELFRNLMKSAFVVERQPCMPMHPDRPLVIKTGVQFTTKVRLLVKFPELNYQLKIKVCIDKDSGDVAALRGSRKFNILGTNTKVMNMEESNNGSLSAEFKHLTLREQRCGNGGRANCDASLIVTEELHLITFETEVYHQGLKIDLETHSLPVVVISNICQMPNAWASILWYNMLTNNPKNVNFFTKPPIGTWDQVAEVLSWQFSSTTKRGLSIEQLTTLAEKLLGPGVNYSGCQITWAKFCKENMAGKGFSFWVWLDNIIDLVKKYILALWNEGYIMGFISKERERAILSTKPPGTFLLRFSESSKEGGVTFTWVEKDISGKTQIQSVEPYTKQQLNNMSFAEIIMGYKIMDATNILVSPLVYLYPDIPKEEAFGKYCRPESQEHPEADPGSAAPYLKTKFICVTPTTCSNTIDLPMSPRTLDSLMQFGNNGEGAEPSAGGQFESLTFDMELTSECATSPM

[37] = target: RAC-alpha serine/threonine-protein kinase (Homo sapiens) (UniProt P31749); assay: Effect on AKT phosphorylation in human Bel7402/5-FU cells assessed as ratio of phosphorylated AKT to beta-actin level at 0.1 uM after 48 hrs by Western blot analysis (reference value: 0.39); assay type: cell-based
RAC-alpha serine/threonine-protein kinase (Homo sapiens), sequence (P31749 whole entry): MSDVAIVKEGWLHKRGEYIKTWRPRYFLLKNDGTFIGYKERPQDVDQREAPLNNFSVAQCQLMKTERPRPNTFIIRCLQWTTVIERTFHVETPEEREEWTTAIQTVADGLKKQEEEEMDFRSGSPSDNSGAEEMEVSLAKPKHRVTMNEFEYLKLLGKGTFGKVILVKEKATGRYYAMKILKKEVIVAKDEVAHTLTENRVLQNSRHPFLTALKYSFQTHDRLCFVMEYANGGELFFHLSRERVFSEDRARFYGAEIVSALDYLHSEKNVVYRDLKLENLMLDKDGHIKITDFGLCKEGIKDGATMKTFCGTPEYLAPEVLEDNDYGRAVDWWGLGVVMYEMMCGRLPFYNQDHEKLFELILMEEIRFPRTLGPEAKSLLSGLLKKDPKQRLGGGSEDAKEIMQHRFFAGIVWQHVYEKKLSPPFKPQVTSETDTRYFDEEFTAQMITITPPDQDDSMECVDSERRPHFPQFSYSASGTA

**Q.** For `COc1cc([C@@H]2c3cc4c(cc3[C@H](OC(=O)c3ccccc3OC(C)=O)[C@H]3COC(=O)[C@H]23)OCO4)cc(OC)c1OC`, which IC50 [1] is on record?
**A.** 0.199 µM

**Q.** And the IC50 [2]?
**A.** 0.065 µM

**Q.** What about the IC50 [3] of the same molecule?
**A.** 0.09 µM

**Q.** And the “Ratio IC50” value [4]?
**A.** 0.32

**Q.** What about the Activity [5] of the same molecule?
**A.** 17.03%

**Q.** What about the Activity [6] of the same molecule?
**A.** 24.69%

**Q.** What about the Activity [7] of the same molecule?
**A.** 58.28%

**Q.** And the Activity [8]?
**A.** Active

**Q.** And the Activity [9]?
**A.** Active

**Q.** What about the Activity [10] of the same molecule?
**A.** Active

**Q.** And the Activity [11]?
**A.** Active

**Q.** And the Activity [12]?
**A.** 65.12%

**Q.** What about the Activity [13] of the same molecule?
**A.** 5.45%

**Q.** What about the Activity [14] of the same molecule?
**A.** 24.2%

**Q.** What about the Activity [15] of the same molecule?
**A.** 5.23%

**Q.** And the Activity [16]?
**A.** Active

**Q.** What about the Activity [17] of the same molecule?
**A.** Active

**Q.** And the Activity [18]?
**A.** Active

**Q.** What about the Ratio [19] of the same molecule?
**A.** 0.28

**Q.** And the Ratio [20]?
**A.** 0.39

**Q.** What about the Ratio [21] of the same molecule?
**A.** 0.2

**Q.** What about the Ratio [22] of the same molecule?
**A.** 0.09

**Q.** And the Ratio [23]?
**A.** 0.53

**Q.** What about the Ratio [24] of the same molecule?
**A.** 0.57

**Q.** And the Ratio [25]?
**A.** 0.57

**Q.** What about the Ratio [26] of the same molecule?
**A.** 0.47

**Q.** And the Ratio [27]?
**A.** 0.14

**Q.** And the Ratio [28]?
**A.** 0.31

**Q.** And the Ratio [29]?
**A.** 0.1

**Q.** What about the Ratio [30] of the same molecule?
**A.** 0.16

**Q.** And the Ratio [31]?
**A.** 0.31

**Q.** What about the Ratio [32] of the same molecule?
**A.** 0.16

**Q.** And the Ratio [33]?
**A.** 0.52

**Q.** And the Ratio [34]?
**A.** 0.31

**Q.** What about the Ratio [35] of the same molecule?
**A.** 0.19

**Q.** And the Ratio [36]?
**A.** 0.17

**Q.** And the Ratio [37]?
**A.** 0.29

**Q.** What does the source list for `CC(C)Cc1ccc(C(C)C(=O)O)cc1` (stereo not given) [IBUPROFEN]?
**A.** IC50 [1]: > 100 µM; IC50 [2]: > 100 µM; IC50 [3]: > 100 µM

**Q.** Which results are given for `COc1ccc2c(c1)c(CC(=O)O)c(C)n2C(=O)c1ccc(Cl)cc1` [INDOMETHACIN]?
**A.** IC50 [1]: > 100 µM; IC50 [2]: > 100 µM; IC50 [3]: > 100 µM

**Q.** Which IC50 [1] does the source give for `O=c1[nH]cc(F)c(=O)[nH]1` [FLUOROURACIL] here?
**A.** 5.94 µM

**Q.** And the IC50 [2]?
**A.** > 100 µM

**Q.** What about the IC50 [3] of the same molecule?
**A.** 32.5 µM

**Q.** What about the “Ratio IC50” value [4] of the same molecule?
**A.** >16.83

**Q.** For `CC(=O)Oc1ccccc1C(=O)O` [ASPIRIN], which IC50 [1] is on record?
**A.** > 100 µM

**Q.** What about the IC50 [2] of the same molecule?
**A.** > 100 µM

**Q.** What about the IC50 [3] of the same molecule?
**A.** > 100 µM
